The results in this text go back to patent US7772241B2, “Variolin derivatives and their use as antitumor agents” (Pharma Mar S.A., priority 2001, dated 2010).

Read-outs that look alike come from different tables or passages of the source.

Data set [1] in a line: Inhibition of cells growth by colorimetric (SRB) assay, HMEC1. To be noted: human, HMEC1 cells, LC50 H-MEC-1, SRB assay, 48 hours exposure. A general note: In SRB staining, fixed cells bind dye roughly in proportion to their protein.
The subject of data set [2] is HMEC1. Described as above.
The subject of data set [3] is SK-MEL-28. Kind of data set: Inhibition of cells growth by colorimetric (SRB) assay, SK-MEL-28. Particulars: for GI50 / CC50: Homo sapiens, SK-MEL-28, 48 h. The procedure, abridged:
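Read-out is sulforhodamine B protein stain (OD 490 nm) after cold TCA fixation, following 48 h continuous exposure to samples spanning 10 to 10^−8 μg/ml.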

Broadly, the GI50 is the concentration that inhibits growth by half. `CSc1nccc(-c2c3cccnc3n3c(N(C(C)=O)C(C)=O)nccc23)n1` [Compound 26] gave a CC50 at 48 h in data set [1] of 8.28 µM. Besides, the GI50 in data set [2] (Homo sapiens, HMEC-1, 48 h, read-out: GI50 H-MEC-1, SRB assay, 48 hours exposure) came out at 446 nM; in data set [3] (read-out: GI50 MEL-28, SRB assay, 48 hours exposure), 273 nM; in data set [3] (read-out: MEL-28 GI50, SRB assay, 48 hours exposure) it was 202 nM. Also, the “TGI H-MEC-1” value in data set [2] (SRB assay, 48 hours exposure, in M (unit assumed)) was 1.22E−06. The CC50 in data set [3] (read-out: LC50 MEL-28, SRB assay, 48 hours exposure) stood at 10.1 µM; in data set [3] (read-out: MEL-28 LC50, SRB assay, 48 hours exposure) it was 1.29 µM. In data set [3] (SRB assay, 48 hours exposure), the “MEL-28 TGI” value was determined as 5.38E−07. Besides, the “TGI MEL-28” value in data set [3] (SRB assay, 48 hours exposure) came out at 2.88E−06.
